US11357719B2, “Method for obtaining a diglycoside-enriched Armeria maritima extract, and use thereof in cosmetics” (BIOTECHMARINE, priority 2016, dated 2022)
Several values for one entry are separate records, joined by “and”; a condition that tells them apart may be missing. Equal values may be shown once.

Legend:
normal human fibroblasts = test: Phototoxicity evaluation based on OECD test no. 432 (in vitro 3T3 NRU phototoxicity test), MTT viability; format: cell-based
Description: This evaluation is carried out based on the experimental conditions of test no. 432, entitled “in vitro 3T3 NRU phototoxicity test” from the OECD guidelines for testing chemicals, regarding conditions related to culture kinetics and to the acceptable dosage limit for Chlopromazine (CPZ). This guideline describes a method for evaluating photo-cytotoxicity by the relative reduction in the viability of the cells exposed to the chemical product in the presence or absence of light.
A pool of normal human fibroblasts of Caucasian type is used and amplified for five days in a 75 cm^2 flask in specific culture medium containing 10% FBS*. The cells are then seeded in culture wells of a 96-well plate (4 wells/condition), at 10 000 cells/well, in 200 μl of specific culture medium containing 10% FBS (Fetal Bovine Serum). 24 h after seeding, the cells are treated with the products for the test, prepared in EBSS (Earle's balance salt Solution) for one hour. At the end of this incubation, the cells are exposed (+irr) or not exposed (−irr) to a dose of 1 J/cm^2 of UVA, in the presence of the products being tested. At the end of this exposure, the cell layers are rinsed then brought back into contact with specific culture medium containing 2% of FBS. 24 h after this change, the cell viability is evaluated using the MTT method (colorimetric assay, visualized at 540 nm). The results are expressed as percentage viability relative to the control. The following parameters are deduced therefrom:
EC50: Concentration of active agent inducing 50% toxicity (−irr) or phototoxicity (+irr)
PIF (photo-irradiation factor): EC50(−irr)/EC50(+irr)
2<PIF<5: Probable phototoxicity

purified collagenase = test: Anti-collagenase activity, EnzCheck gelatinase/collagenase Assay Kit (cell-free, fluorimetry); format: biochemical, Clostridium Histolyticum; details: for Fluorescence: 2 h incubation at room temperature, blank subtracted; for Inhibition: relative to control group
Description: A purified collagenase is used and the degradation of its pro-fluorescent substrate is monitored by fluorimetry.
The anti-collagenase activity is evaluated using a commercially available kit (EnzCheck™ gelatinase/collagenase Assay Kit, Molecular Probes, reference E-12055).
This is a test based on a cell-free biochemical evaluation using a purified collagenase from a […] (Clostridium Histolyticum) and a purified gelatin from porcine skin, purified type I collagen from bovine skin or purified type IV collagen from human placenta. […] The increase in the fluorescence is proportional to the MMP activity. A decrease in this fluorescence is expected in the presence of anti-MMP active agents. The test is validated using a reference anti-MMP inhibitor provided in the kit, 1,10-phenanthroline, tested at 0.01% and 0.001%.
The products are placed on a 96-well plate in the following manner:
The products are left to incubate for two hours at room temperature in darkness, then the fluorescence is determined (Excitation 495 nm; Emission: 515 nm). Each test is repeated three times. For each sample, the values are subtracted from the blank test. The percentage inhibition corresponds to the ratio of the mean of the collagenase activity obtained for each extract to the mean of the collagenase activity of the control group.

For CN(C)CCCN1c2ccccc2Sc2ccc(Cl)cc21 [CPZ, Chlopromazine], the “PIF (photo-irradiation factor): EC50(−irr)/EC50(+irr)” value (normal human fibroblasts; PIF<2 no phototoxicity, 2<PIF<5 probable phototoxicity, PIF>5 phototoxicity) was 89.2, the “EC50(+irr): concentration of active agent inducing 50% phototoxicity” value (normal human fibroblasts; exposed to 1 J/cm^2 of UVA, MTT viability 24 h after) was 0.25 and the “EC50(−irr): concentration of active agent inducing 50% toxicity” value (normal human fibroblasts; not exposed to UVA, MTT viability 24 h after) was 22.30.
With c1cnc2c(c1)ccc1cccnc12 [1,10-phenanthroline] the Fluorescence (purified collagenase; product at 0.001%) was 37.13 AU and 24.41 AU, the Inhibition (purified collagenase; product at 0.001%) was 66% and 76% and the Fluorescence (purified collagenase; product at 0.01%) was 0.91 AU and 1.07 AU. It also gave an Inhibition (purified collagenase; product at 0.01%) of 99%.
